Assay results as given in ChEMBL document CHEMBL3112428, “Biological evaluation of diazene derivatives as anti-tubercular compounds” (Eur J Med Chem, 2014).
In brackets after ≈: the same amount, converted by molar mass.

These molecules were tested on Mycobacterium tuberculosis variant bovis (assay: Antituberculosis activity against Mycobacterium bovis AN5 expressing lux gene assessed as inhibition of bacterial replication after 6 days by luminometry analysis). Details: AN5, 144 h.
Assay type: functional, organism-based
`O=C(/N=N/c1ccc([N+](=O)[O-])cc1)Nc1ccccc1` gave an IC50 of 2.21 µg/mL (≈ 8.18 µM).
`O=C(/N=N/c1ccc(C(F)(F)F)cc1)Nc1ccccc1` showed an IC50 of 1.05 µg/mL (≈ 3.58 µM).
`CCOC(=O)/N=N/C(=O)Nc1ccc(C)cc1` was tested, and the IC50 was 2.78 µg/mL (≈ 11.8 µM).
